Experimental data from patent publication US10246429B2, “Vinyl fluoride cyclopropyl fused thiazin-2-amine compounds as beta-secretase inhibitors and methods of use” (AMGEN INC., priority 2015, dated 2019).
pIC50: −log10 of the molar value.

Experiments:
BACE1 [1] = molecular target: T1, BACE1 (Homo sapiens (Human), UniProt P56817); experiment: In vitro enzymatic BACE1 FRET assay; assay type: biochemical; conditions: read-out: IC50 IP (μM) BACE1 Enzyme
Target sequence in this assay (P56817 46-501): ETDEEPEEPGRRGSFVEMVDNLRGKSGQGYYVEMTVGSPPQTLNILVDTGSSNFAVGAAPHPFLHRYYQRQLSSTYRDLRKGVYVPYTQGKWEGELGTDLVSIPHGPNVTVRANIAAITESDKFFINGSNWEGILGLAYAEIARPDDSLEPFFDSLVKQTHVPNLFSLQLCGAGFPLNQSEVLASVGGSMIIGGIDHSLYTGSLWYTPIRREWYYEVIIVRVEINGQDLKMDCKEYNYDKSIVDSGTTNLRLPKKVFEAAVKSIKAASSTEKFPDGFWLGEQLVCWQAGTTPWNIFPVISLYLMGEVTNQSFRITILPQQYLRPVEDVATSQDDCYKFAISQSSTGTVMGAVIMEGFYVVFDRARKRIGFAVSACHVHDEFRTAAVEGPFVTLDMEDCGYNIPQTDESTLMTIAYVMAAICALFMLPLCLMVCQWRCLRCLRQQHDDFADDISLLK
Source text: (§1) In Vitro Enzymatic BACE1 and BACE2 FRET (Fluorescence Resonance Energy Transfer) Assays (Enzyme Assay Data in Table 1)

BACE1 [2] = molecular target: T1, BACE1; experiment: BACE1 cell assay; assay type: cell-based; conditions: for IC50: read-out: IC50 IP (μM) BACE1 Cell
Target sequence in this assay (P56817 46-501, species assumed): as the sequence (P56817 46-501) above

BACE2 = BACE2 (Homo sapiens (Human), UniProt Q9Y5Z0); experiment: In vitro enzymatic BACE2 FRET assay; assay type: biochemical; conditions: read-out: IC50 IP (μM) BACE2 Enzyme
Chain of BACE2 (Q9Y5Z0 63-518): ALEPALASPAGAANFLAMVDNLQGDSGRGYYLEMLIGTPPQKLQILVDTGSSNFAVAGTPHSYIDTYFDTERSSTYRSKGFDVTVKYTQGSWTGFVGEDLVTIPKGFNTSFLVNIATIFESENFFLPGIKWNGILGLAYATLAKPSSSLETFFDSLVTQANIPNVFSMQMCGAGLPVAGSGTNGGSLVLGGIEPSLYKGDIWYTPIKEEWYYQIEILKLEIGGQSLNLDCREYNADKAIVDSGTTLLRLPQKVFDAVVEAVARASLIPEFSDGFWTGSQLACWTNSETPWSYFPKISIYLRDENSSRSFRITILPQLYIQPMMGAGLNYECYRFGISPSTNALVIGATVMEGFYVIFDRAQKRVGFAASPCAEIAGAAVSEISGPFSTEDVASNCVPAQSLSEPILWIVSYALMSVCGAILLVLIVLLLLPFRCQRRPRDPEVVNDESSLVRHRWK
Source text: as §1

Cathepsin D (CatD) = Cathepsin D (CatD) (Homo sapiens (Human), UniProt P07339); experiment: CatD assay; assay type: biochemical; conditions: read-out: IC50 IP (μM) CatD
Chain of Cathepsin D (CatD) (P07339 65-412, species assumed): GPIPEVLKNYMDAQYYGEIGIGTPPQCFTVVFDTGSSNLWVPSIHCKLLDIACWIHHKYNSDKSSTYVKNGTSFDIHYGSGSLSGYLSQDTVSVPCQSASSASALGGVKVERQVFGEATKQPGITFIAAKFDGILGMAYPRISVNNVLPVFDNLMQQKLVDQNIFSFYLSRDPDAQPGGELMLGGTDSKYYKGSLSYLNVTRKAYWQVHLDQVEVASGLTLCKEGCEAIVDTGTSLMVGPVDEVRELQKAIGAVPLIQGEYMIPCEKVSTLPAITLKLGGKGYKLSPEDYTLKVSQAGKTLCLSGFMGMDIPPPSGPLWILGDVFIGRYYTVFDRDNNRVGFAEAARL

Structure (SMILES)	IC50 (BACE1 [1])	IC50 (BACE1 [2])	IC50 (BACE2)	IC50 (Cathepsin D (CatD))	pIC50 (BACE1 [2])
C[C@H]1CN(C(=O)[C@]23C[C@H]2[C@@](C)(c2cc(/C=C(\F)c4ccc(C#N)cn4)ccc2F)N=C(N)S3)[C@@H](C)CO1 [Example 329, 6-((Z)-2-(3-((1S,5S,6S)-3-amino-1-((2S,5S)-2,5-dimethylmorpholine-4-carbonyl)-5-methyl-2-thia-4-azabicyclo[4.1.0]hept-3-en-5-yl)-4-fluorophenyl)-1-fluorovinyl)nicotinonitrile]	0.0045 µM	0.0035 µM	0.124 µM	73.9 µM	–
C[C@]1(c2cc(/C=C(\F)c3ccc(C#N)cn3)ccc2F)N=C(N)S[C@]2(CO)[C@H]1C2(F)F [Example 251, 6-((Z)-2-(3-((1S,5S,6R)-3-amino-7,7-difluoro-1-(hydroxymethyl)-5-methyl-2-thia-4-azabicyclo[4.1.0]hept-3-en-5-yl)-4-fluorophenyl)-1-fluorovinyl)nicotinonitrile]	0.012 µM	0.062 µM	0.159 µM	360 µM	–
C[C@@H]1CCN1C(=O)[C@]12C[C@H]1[C@@](C)(c1cc(/C=C(\F)c3ccc(Cl)cn3)ccc1F)N=C(N)S2 [Example 120, ((1S,5S,6S)-3-amino-5-(5-((Z)-2-(5-chloropyridin-2-yl)-2-fluorovinyl)-2-fluorophenyl)-5-methyl-2-thia-4-azabicyclo[4.1.0]hept-3-en-1-yl)((R)-2-methylazetidin-1-yl)methanone]	0.00275 µM	0.0267 µM	0.0108 µM	132 µM	–
C[C@]1(c2cc(/C=C(\F)c3ccc(C#N)cn3)ccc2F)N=C(N)S[C@@]2(S(C)(=O)=O)C[C@H]21 [Example 233, 6-((Z)-2-(3-((1R,5S,6S)-3-amino-5-methyl-1-(methylsulfonyl)-2-thia-4-azabicyclo[4.1.0]hept-3-en-5-yl)-4-fluorophenyl)-1-fluorovinyl)nicotinonitrile]	0.0016 µM	0.0087 µM	0.014 µM	204 µM	–
C[C@]1(c2cc(/C=C(\F)c3ccc(C#N)cn3)ccc2F)N=C(N)S[C@@]2(C(=O)N3CCCC3c3ccccc3)C[C@H]21 (stereo partly drawn) [Example 337, 6-((Z)-2-(3-((1S,5S,6S)-3-amino-5-methyl-1-(2-phenylpyrrolidine-1-carbonyl)-2-thia-4-azabicyclo[4.1.0]hept-3-en-5-yl)-4-fluorophenyl)-1-fluorovinyl)nicotinonitrile]	0.0044 µM	0.01 µM	0.046 µM	2.4 µM	–
C[C@]1(c2cc(/C=C(\F)c3ccc(C#CC4CC4)cn3)ccc2F)N=C(N)S[C@@]2(C(=O)N3CCOCC3)C[C@H]21 [Example 357, ((1S,5S,6S)-3-amino-5-(5-((Z)-2-(5-(cyclopropylethynyl)pyridin-2-yl)-2-fluorovinyl)-2-fluorophenyl)-5-methyl-2-thia-4-azabicyclo[4.1.0]hept-3-en-1-yl)(morpholino)methanone]	0.015 µM	0.155 µM	0.43 µM	29.1 µM	–
C[C@H]1CN(C(=O)[C@]23C[C@H]2[C@@](C)(c2cc(/C=C(\F)c4ccc(C#N)cn4)ccc2F)N=C(N)S3)CCO1 [Example 321, 6-((Z)-2-(3-((1S,5S,6S)-3-amino-5-methyl-1-((S)-2-methylmorpholine-4-carbonyl)-2-thia-4-azabicyclo[4.1.0]hept-3-en-5-yl)-4-fluorophenyl)-1-fluorovinyl)nicotinonitrile]	0.0035 µM	0.0027 µM	0.111 µM	578 µM	–
C[C@]1(c2cc(/C=C(\F)c3ccc(C#N)cn3)cnc2F)N=C(N)S[C@@]2(C(=O)N3CC[C@@H](F)C3)C[C@H]21 [Example 181, 6-((Z)-2-(5-((1S,5S,6S)-3-amino-1-((R)-3-fluoropyrrolidine-1-carbonyl)-5-methyl-2-thia-4-azabicyclo[4.1.0]hept-3-en-5-yl)-6-fluoropyridin-3-yl)-1-fluorovinyl)nicotinonitrile]	0.0021 µM	0.0073 µM	0.033 µM	653 µM	–
COC(=O)[C@]12C[C@H]1[C@@](C)(c1cc(/C=C(\F)c3ccc(Cl)cn3)cnc1F)N=C(N)S2 [Example 176, (1S,5S,6S)-methyl 3-amino-5-(5-((Z)-2-(5-chloropyridin-2-yl)-2-fluorovinyl)-2-fluoropyridin-3-yl)-5-methyl-2-thia-4-azabicyclo[4.1.0]hept-3-ene-1-carboxylate]	0.142 µM	1.76 µM	0.214 µM	> 400 µM	–
C#CCOc1cnc(/C(F)=C/c2ccc(F)c([C@@]3(C)N=C(N)S[C@@]4(S(C)(=O)=O)C[C@H]43)c2)cn1 [Example 227, (1R,5S,6S)-5-(2-fluoro-5-((Z)-2-fluoro-2-(5-(prop-2-yn-1-yloxy)pyrazin-2-yl)vinyl)phenyl)-5-methyl-1-(methylsulfonyl)-2-thia-4-azabicyclo[4.1.0]hept-3-en-3-amine]	0.0006 µM	–	0.058 µM	55.1 µM	7.98
C#C[C@H](C)Oc1cnc(/C(F)=C/c2ccc(F)c([C@@]3(C)N=C(N)S[C@@]4(COC)C[C@H]43)c2)cn1 [Example 264]	0.003 µM	0.026 µM	0.917 µM	363 µM	–
C[C@]1(c2cc(/C=C(\F)c3cnc(C#CC4CC4)cn3)ccc2F)N=C(N)S[C@@]2(C(=O)N3CCOCC3)C[C@H]21 [Example 353, ((1S,5S,6S)-3-amino-5-(5-((Z)-2-(5-(cyclopropylethynyl)pyrazin-2-yl)-2-fluorovinyl)-2-fluorophenyl)-5-methyl-2-thia-4-azabicyclo[4.1.0]hept-3-en-1-yl)(morpholino)methanone]	0.002 µM	0.014 µM	0.145 µM	61 µM	–
C[C@]1(c2cc(/C=C(\F)c3ccc(C#N)cn3)ccc2F)N=C(N)S[C@@]2(C(=O)N3CCOC4(CC4)C3)C[C@H]21 [Example 318, 6-((Z)-2-(3-((1S,5S,6S)-3-amino-5-methyl-1-(4-oxa-7-azaspiro[2.5]octane-7-carbonyl)-2-thia-4-azabicyclo[4.1.0]hept-3-en-5-yl)-4-fluorophenyl)-1-fluorovinyl)nicotinonitrile]	0.0029 µM	0.0033 µM	0.051 µM	108 µM	–
C[C@]1(c2cc(/C=C(\F)c3ccc(C#N)cn3)ccc2F)N=C(N)S[C@@]2(C(=O)N3CC4(CCOCC4)C3)C[C@H]21 [Example 320, 6-((Z)-2-(3-((1S,5S,6S)-3-amino-5-methyl-1-(7-oxa-2-azaspiro[3.5]nonane-2-carbonyl)-2-thia-4-azabicyclo[4.1.0]hept-3-en-5-yl)-4-fluorophenyl)-1-fluorovinyl)nicotinonitrile]	0.0052 µM	0.0024 µM	0.039 µM	292 µM	–
C[C@]1(c2cc(/C=C(\F)c3cnc(C#N)cn3)ccc2F)N=C(N)S[C@@]2(C(=O)N3CCCCC3)C[C@H]21 [Example 201, 5-((Z)-2-(3-((1S,5S,6S)-3-amino-5-methyl-1-(piperidine-1-carbonyl)-2-thia-4-azabicyclo[4.1.0]hept-3-en-5-yl)-4-fluorophenyl)-1-fluorovinyl)pyrazine-2-carbonitrile]	0.001 µM	0.009 µM	0.074 µM	16.7 µM	–
